Experiment [1] relates to collagen-induced arthritis (CIA). Briefly: Comparative tests for treatment efficacy in collagen-induced arthritis (CIA) rats. It counts as in vivo, Lewis rat. The note with it: acute phase (until 35 days after immunization), FIGS. 3 and 4.
The subject of experiment [2] is infiltration of lymphocytes into joint tissues. Briefly: Histological analysis of ankle joints of CIA rats (hematoxylin and eosin). The following applies: 35 days after immunization, FIG. 5. The format is in vivo, rat. The source says: Joints dissected were washed with PBS and fixed for 24 hr in 4% paraformaldehyde, followed by decalcification for 2-3 days in decalcification solution (Merck). The decalcified joint tissues were embedded in paraffin, sectioned to […], deparaffinized, stained with hematoxylin and eosin, and observed under microscope. A basic dye, hematoxylin binds to nucleus containing negative-charged DNA and RNA molecules and an acidic dye, eosin binds to cytoplasmic proteins and collagen with positive charge.

This is an account of results in US20090028840A1, “Compositions For Preventing Or Treating Arthritis Comprising Lactic Acid Bacteria and Collangen As Active Ingredients” (Gwangju Institute of Sciecne and Technology, priority 2005, published 2009).

For the compound “Lactobacillus casei [lactic acid bacteria]”, the “treatment efficacy on arthritis during acute phase” value in experiment [1] was “low”.

Consider `CN(Cc1cnc2nc(N)nc(N)c2n1)c1ccc(C(=O)N[C@@H](CCC(=O)O)C(=O)O)cc1` [MTX, methotrexate], for which the “treatment efficacy on arthritis during acute phase” value in experiment [1] is “better until acute phase (until 35 days after immunization) than the present composition”. The “infiltration of lymphocytes (immune cells) into joints” value in experiment [2] is “little or no occurrence of the infiltration of lymphocytes”.
